Patent publication US11950596B2, “Methods of protecting seeds from oxidants and microorganisms” (The United States of America, as represented by the …, priority 2020, dated 2024)
Where two headings read alike, the source gives them in different places. Marks after values point to notes of the source that are not given here.

Legend:
[1] = system: P. chrysogenum 824; assay: Heat-sensitizing bioassay of OG (MFC) in other fungi; type: cell-based, Penicillium chrysogenum; details: 90 seconds
Experimental: (§1) As described in A. flavus 3357 test (see above), microfuge tubes were treated with mild heat (57.5° C.) or maintained at RT (22.0° C.) (90 seconds). After heat treatments, entire volume (200 μL) from each microfuge tube was spread onto fresh recovery LB agar (for bacteria) or PDA (for fungi), and plates were incubated at the optimum temperature for respective microorganisms (i.e., 35° C. for Aspergillus, 37° C. for E. coli, 28° C. for Penicillium/A. tumefaciens, respectively). The growth/survival of test microorganisms were monitored after 48 to 72 hrs of incubation.
(§2) Heat-sensitizing activity of OG against other fungi: Heat-sensitizing activity of OG was then investigated in other fungi (five Aspergillus strains and seven Penicillium strains) including fungicide resistant strains (i.e., P. expansum FR2, FR3 resistant to the conventional fungicide fludioxonil) (see Table 1).

[2] = system: P. expansum W2; assay: as above; type: cell-based; details: Penicillium expansum, 90 seconds
Experimental: as §1, §2

[3] = system: P. expansum FR3; assay: as above; type: cell-based; details: Penicillium expansum, fludioxonil resistant mutant
Experimental: as §1, §2

[4] = system: P. expansum W1; assay: as above; type: cell-based; details: Penicillium expansum, 90 seconds
Experimental: as §1, §2

[5] = system: P. expansum FR2; assay: as above; type: cell-based; details: Penicillium expansum, fludioxonil resistant mutant
Experimental: as §1, §2

[6] = system: Brassica rapa Pekinensis seeds; assay: Seed disinfection bioassay, germination of treated cabbage seeds; type: in vivo; details: for No. of seedlings germinated: 12 seeds; for % Seed germination: mean over 20/50° C. and 20/30 min
Experimental: Antifungal seed disinfection bioassays using OG: Effect of OG plus mild heat hurdle technology on the level of seed sanitation (Brassica rapa Pekinensis; Chinese cabbage hybrid) was evaluated. Twelve cabbage seeds (per treatment), unsterilized, were transferred to each 1.5 mL microcentrifuge tube filled with 1 mL (final volume) distilled water, without or with A. flavus (1×10^5 CFU/mL): (1) No OG, no A. flavus inoculum, 20 or 30 min, 20° C.; (2) No OG, no A. flavus inoculum, 20 or 30 min, 50° C.; (3) No OG, w/A. flavus, 20 or 30 min, 20° C.; (4) No OG, w/A. flavus, 20 or 30 min, 50° C.; (5) OG 2 mM, w/A. flavus, 20 or 30 min, 20° C., (6) OG 2 mM, w/A. flavus, 20 or 30 min, 50° C., (7) OG 3 mM, w/A. flavus, 20 or 30 min, 20° C.; (8) OG 3 mM, w/A. flavus, 20 or 30 min, 50° C.; (9) OG 4 mM, w/A. flavus, 20 or 30 min, 20° C.; and (10) OG 4 mM, w/A. flavus, 20 or 30 min, 50° C. After each treatment, the treated seeds (total 12 seeds per treatment) were transferred to PDA and the plates were incubated in the dark at room temperature (RT; 20° C.) for seed germination. After seed germination, the growth of seedlings and fungal germination on the surfaces of germinated seeds were monitored up to 7 days (RT).
Seed disinfection via heat-sensitizing activity of OG: Heat-sensitizing capacity of OG was investigated further with crop seeds (Brassica rapa Pekinensis; Chinese cabbage hybrid) contaminated with A. flavus 3357 on the seed surfaces. OG (0, 2, 3, 4 mM) and mild heat (50° C.; Control: 20° C.) were co-applied for 20 to 30 minutes, and the rates of seed germination were also determined.

[7] = system: A. flavus 3357; assay: Heat-sensitizing antimicrobial bioassay (MFC) in A. flavus 3357; type: cell-based, Aspergillus flavus; details: for MFC: Aspergillus flavus, 3357, 0.025 h, read-out: minimum fungicidal concentration (MFC; >99.999% fungal death)
Experimental: Antimicrobial bioassay: The heat-sensitizing effect of twenty-eight compounds (phenolic derivatives, alkyl gallates, other food additives) (0.025, 0.050, 0.075, 0.100, 0.200, 0.300, 0.400, 0.500, 0.600 or 0.700 mM) and six drugs/fungicides (1, 2, 4, 8, 16, 32, 64 ppm) (Table 2) were examined using A. flavus 3357. Two hundred μL of fungal spores (1.5×10^5 to 2.1×10^5 CFU) dispersed in PBS was transferred into individual microfuge tube (1.5 mL vol.), where (1) “control” tube contained DMSO only, while (2) “treatment” tube contained test chemical/drug at respective concentration. The tubes were then treated with mild heat (57.5° C.) or maintained at room temperature (RT; 22.0° C.) for 90 seconds. After treatments, entire volume (200 μL) from each microfuge tube was spread onto fresh recovery PDA, and plates were incubated at respective temperatures. Fungal growth/survival was monitored after 48 hrs of incubation.
as §1
Determination of optimum temperature and time duration for screening heat sensitizers in A. flavus 3357: For the determination of the optimum temperature and time points for screening heat sensitizers, fungal (A. flavus 3357) survivability was tested by exposing fungal spores (1.5×10^5 to 2.1×10^5 CFU) to different temperatures (50, 55, 57.5, 60, 65° C.) and time points (0.5, 1.0, 1.5, 2.0, 2.5, 3.0, 3.5, 4.0, 4.5, 5.0 min).

[8] = system: A. tumefaciens or E. coli; assay: Heat-sensitizing bioassay of OG, average MBC of bacteria; type: cell-based, Agrobacterium tumefaciens, Escherichia coli; details: 90 seconds
Experimental: as §1
Heat-sensitizing activity of OG against bacteria (A. tumefaciens, E. coli): Heat-sensitizing activity of OG was also investigated against bacterial cells (i.e., E. coli and plant-pathogenic A. tumefaciens). […] (Table 4; FIG. 2).

[9] = system: P. italicum 983; assay: Heat-sensitizing bioassay of OG (MFC) in other fungi; type: cell-based, Penicillium italicum; details: 90 seconds
Experimental: as §1, §2

CCCCCCCCOC(=O)c1cc(O)c(O)c(O)c1 [Octyl gallate]
MFC ([1]; Penicillium chrysogenum, 824, 22.0° C.): 250 µM
MFC ([1]; Penicillium chrysogenum, 824, 57.5° C.): 130 µM
MFC ([2]; W2, 22.0° C.): > 300 µM
MFC ([2]; W2, 57.5° C.): 170 µM
MFC ([3]; FR3, read-out: MFC of OG, 22.0° C., 90 seconds): > 300 µM
MFC ([3]; FR3, read-out: MFC of OG, 57.5° C., 90 seconds): 160 µM
MFC ([4]; W1, 22.0° C.): > 300 µM
MFC ([4]; W1, 57.5° C.): 160 µM
MFC ([5]; FR2, read-out: MFC of OG, 22.0° C., 90 seconds): > 300 µM
MFC ([5]; FR2, read-out: MFC of OG, 57.5° C., 90 seconds): 190 µM
No. of seedlings germinated ([6]; OG 2 mM, 20° C., 20 min): 12
No. of seedlings germinated ([6]; OG 2 mM, 20° C., 30 min): 12
No. of seedlings germinated ([6]; OG 2 mM, 50° C., 20 min): 12
No. of seedlings germinated ([6]; OG 2 mM, 50° C., 30 min): 10
% Seed germination ([6]; OG 2 mM): 96 ± 8%
No. of seedlings germinated ([6]; OG 3 mM, 20° C., 20 min): 12
No. of seedlings germinated ([6]; OG 3 mM, 20° C., 30 min): 12
No. of seedlings germinated ([6]; OG 3 mM, 50° C., 20 min): 12
No. of seedlings germinated ([6]; OG 3 mM, 50° C., 30 min): 11
% Seed germination ([6]; OG 3 mM): 98 ± 4%
No. of seedlings germinated ([6]; OG 4 mM, 20° C., 20 min): 12
No. of seedlings germinated ([6]; OG 4 mM, 20° C., 30 min): 12
No. of seedlings germinated ([6]; OG 4 mM, 50° C., 20 min): 11
No. of seedlings germinated ([6]; OG 4 mM, 50° C., 30 min): 11
% Seed germination ([6]; OG 4 mM): 96 ± 5%
germination rate of the crop seeds compared to the control ([6]; OG as low as 3 mM, mild heat 50° C., 20 min): not affected
minimum fungicidal concentration (MFC; >99.999% fungal death) [7]: 180* μM
MFC ([7]; 22.0° C. (RT), 90 seconds, PBS): 250 µM
MFC [7]: 180 µM
MBC ([8]; 22° C.): 250 µM
MBC ([8]; 57.5° C.): 75 µM
average MBC of OG ([8]; 57.5° C., listed as OG): 75* μM
MFC ([9]; Penicillium italicum, 983, 22.0° C.): 200 µM
MFC ([9]; Penicillium italicum, 983, 57.5° C.): 100 µM
